Measured values: PubChem BioAssay AID328 (DTP/NCI, 2004)
Values joined by “and” are separate entries in the source; they are usually repeats but may differ in a detail not shown here. Equal values may be shown once. Inconclusive results and toxic doses are left out.

Tested on: BDF1 mice, P388 leukemia ip, median survival T/C
Test: NCI In Vivo Anticancer Drug Screen. Data for tumor model P388 Leukemia (intraperitoneal) in B6D2F1 (BDF1) mice
Details: endpoint: median survival time, higher = longer survival
Summary of the method: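 Reported as T/C, where T is the survival measurement in dosed animals and C the same measurement in vehicle controls.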

[1] = dose: 100.0 mg/kg/injection, schedule: Q04DX003 (ip), vehicle: Klucel (hydroxypropylcellulose) (HPC)
[2] = dose: 200.0 mg/kg/injection, schedule: Q04DX003 (ip), vehicle: Klucel (hydroxypropylcellulose) (HPC)
[3] = dose: 400.0 mg/kg/injection, schedule: Q04DX003 (ip), vehicle: Klucel (hydroxypropylcellulose) (HPC)
[4] = dose: 12.5 mg/kg/injection, schedule: Q01DX009 (ip), vehicle: saline
[5] = dose: 25.0 mg/kg/injection, schedule: Q01DX009 (ip), vehicle: saline
[6] = dose: 50.0 mg/kg/injection, schedule: Q01DX009 (ip), vehicle: saline with Tween-80
[7] = dose: 100.0 mg/kg/injection, schedule: Q01DX009 (ip), vehicle: saline with Tween-80
[8] = dose: 200.0 mg/kg/injection, schedule: Q01DX009 (ip), vehicle: saline with Tween-80
[9] = dose: 100.0 mg/kg/injection, schedule: Q04DX003 (ip), vehicle: saline with Tween-80
[10] = dose: 200.0 mg/kg/injection, schedule: Q04DX003 (ip), vehicle: saline with Tween-80
[11] = dose: 400.0 mg/kg/injection, schedule: Q04DX003 (ip), vehicle: saline with Tween-80
[12] = dose: 100.0 mg/kg/injection, schedule: Q04DX002 (ip), vehicle: saline with Tween-80
[13] = dose: 200.0 mg/kg/injection, schedule: Q04DX002 (ip), vehicle: saline with Tween-80
[14] = dose: 400.0 mg/kg/injection, schedule: Q04DX002 (ip), vehicle: saline with Tween-80
[15] = dose: 50.0 mg/kg/injection, schedule: Q01DX009 (ip), vehicle: saline

## CC(=O)Nc1c(C)cc(C)cc1C
[1]
  T/C: 104 % of control
[2]
  T/C: 100 % of control
[3]
  T/C: 118 % of control

## CC(Nc1ccccc1)(C(N)=O)c1ccccc1 (stereo not drawn)
dose: 25.0 mg/kg/injection, schedule: Q01DX001 (ip), vehicle: saline with Tween-80
  T/C: 90 % of control
dose: 50.0 mg/kg/injection, schedule: Q01DX001 (ip), vehicle: saline with Tween-80
  T/C: 104 % of control
dose: 100.0 mg/kg/injection, schedule: Q01DX001 (ip), vehicle: saline with Tween-80
  T/C: 95 % of control
dose: 200.0 mg/kg/injection, schedule: Q01DX001 (ip), vehicle: saline with Tween-80
  T/C: 90 % of control
dose: 400.0 mg/kg/injection, schedule: Q01DX001 (ip), vehicle: saline with Tween-80
  T/C: 95 % of control

## O=C1OC(=O)C2C3C=CC(O3)C12 (stereo not drawn)
dose: 3.28 mg/kg/injection, schedule: Q04DX003 (ip), vehicle: saline
  T/C: 100 % of control
dose: 6.25 mg/kg/injection, schedule: Q01DX009 (ip), vehicle: saline
  T/C: 110 % of control
dose: 6.56 mg/kg/injection, schedule: Q04DX003 (ip), vehicle: saline
  T/C: 100 % of control
[4]
  T/C: 104 % of control and 105 % of control
dose: 13.12 mg/kg/injection, schedule: Q04DX003 (ip), vehicle: saline
  T/C: 100 % of control
[5]
  T/C: 90 % of control and 104 % of control
dose: 35.0 mg/kg/injection, schedule: Q01DX009 (ip), vehicle: saline
  T/C: 104 % of control

## Cc1ccc(S(=O)C(C)C(Cl)c2ccccc2)cc1 (stereo not drawn)
[6]
  T/C: 98 % of control
[7]
  T/C: 106 % of control
[8]
  T/C: 100 % of control

## CCN(CC)CCCNc1ncnc2onc(C)c12
[9]
  T/C: 101 % of control
[10]
  T/C: 97 % of control
[11]
  T/C: 106 % of control

## C=Cn1ccnc1C.C=Cn1ccnc1C.CC(=O)CC(C)=O.CC(=O)CC(C)=O.[Co]
dose: 12.5 mg/kg/injection, schedule: Q04DX003 (ip), vehicle: saline
  T/C: 106 % of control
dose: 25.0 mg/kg/injection, schedule: Q04DX003 (ip), vehicle: saline
  T/C: 106 % of control
dose: 50.0 mg/kg/injection, schedule: Q04DX003 (ip), vehicle: saline
  T/C: 117 % of control

## C=CC(N)C(=O)O (stereo not drawn)
[12]
  T/C: 117 % of control
[13]
  T/C: 108 % of control
[14]
  T/C: 100 % of control

## CC(=O)[C@H]1CC[C@H]2[C@@H]3C[C@H](F)C4=CC(=O)CC[C@]4(C)[C@H]3C(=O)C[C@]12C
[6]
  T/C: 112 % of control
[7]
  T/C: 104 % of control
[8]
  T/C: 116 % of control
[10]
  T/C: 100 % of control
[11]
  T/C: 111 % of control

## C[N+]1(C)N=C([O-])N(CCCCCCN2C(=O)[N+](C)(C)N=C2[O-])C1=O
dose: 100.0 mg/kg/injection, schedule: Q04DX003 (ip), vehicle: suspension in saline
  T/C: 94 % of control
dose: 200.0 mg/kg/injection, schedule: Q04DX003 (ip), vehicle: suspension in saline
  T/C: 96 % of control
dose: 400.0 mg/kg/injection, schedule: Q04DX003 (ip), vehicle: suspension in saline
  T/C: 98 % of control

## CCN(Cc1ccccc1)c1ccc(/C=C/c2nccc3ccccc23)cc1
[12]
  T/C: 116 % of control
[13]
  T/C: 116 % of control
dose: 266.0 mg/kg/injection, schedule: Q04DX002 (ip), vehicle: saline with Tween-80
  T/C: 89 % of control
[14]
  T/C: 123 % of control
dose: 600.0 mg/kg/injection, schedule: Q04DX002 (ip), vehicle: saline with Tween-80
  T/C: 117 % of control

## CCOC(=O)N1Cc2cc3cc(OC)c(OC)cc3nc2C1
[9]
  T/C: 105 % of control
[10]
  T/C: 90 % of control
[11]
  T/C: 105 % of control

## Cc1ccc2c(c1)CN(Cc1ccccc1)CO2
[1]
  T/C: 104 % of control
[2]
  T/C: 100 % of control
[3]
  T/C: 100 % of control

## C(/C=C\C=C/Nc1ccccc1)=Nc1ccccc1
dose: 10.0 mg/kg/injection, schedule: Q01DX009 (ip), vehicle: saline with Tween-80
  T/C: 100 % of control
dose: 20.0 mg/kg/injection, schedule: Q01DX009 (ip), vehicle: saline with Tween-80
  T/C: 91 % of control
dose: 40.0 mg/kg/injection, schedule: Q01DX009 (ip), vehicle: saline with Tween-80
  T/C: 89 % of control

## O=c1c(O)c(-c2ccc(O)c(O)c2)oc2cc(O)cc(O)c12
dose: 15.0 mg/kg/injection, schedule: Q01DX009 (ip), vehicle: saline
  T/C: 118 % of control
[5]
  T/C: 108 % of control
dose: 30.0 mg/kg/injection, schedule: Q01DX009 (ip), vehicle: saline
  T/C: 109 % of control
[15]
  T/C: 97 % of control and 112 % of control
dose: 100.0 mg/kg/injection, schedule: Q01DX009 (ip), vehicle: saline
  T/C: 102 % of control and 117 % of control
dose: 125.0 mg/kg/injection, schedule: Q01DX009 (ip), vehicle: saline
  T/C: 118 % of control
dose: 200.0 mg/kg/injection, schedule: Q01DX009 (ip), vehicle: saline
  T/C: 110 % of control
dose: 300.0 mg/kg/injection, schedule: Q01DX009 (ip), vehicle: saline
  T/C: 97 % of control

## COc1ccc(CCN2COc3ccc4ccc(=O)oc4c3C2)cc1OC
dose: 132.0 mg/kg/injection, schedule: Q01DX009 (ip), vehicle: saline with Tween-80
  T/C: 100 % of control
[8]
  T/C: 115 % of control
dose: 300.0 mg/kg/injection, schedule: Q01DX009 (ip), vehicle: saline with Tween-80
  T/C: 115 % of control

## COCCCNP(=S)(N1CC1)N1CC1
dose: 16.5 mg/kg/injection, schedule: Q04DX003 (ip), vehicle: saline with Tween-80
  T/C: 163 % of control and 195 % of control
dose: 25.0 mg/kg/injection, schedule: Q04DX003 (ip), vehicle: saline with Tween-80
  T/C: 181 % of control and 218 % of control
dose: 37.5 mg/kg/injection, schedule: Q04DX003 (ip), vehicle: saline with Tween-80
  T/C: 104 % of control and 109 % of control

## CCC1C2CC3C4N(C)c5ccc(Br)cc5C45CC(C2C5O)[N+]3(CC(O)CN2CCCCC2)C1O (stereo not drawn)
[4]
  T/C: 106 % of control
[5]
  T/C: 115 % of control
[15]
  T/C: 89 % of control and 93 % of control

## COc1cc(/C=C/[N+](=O)[O-])c(OC)cc1Br
dose: 3.12 mg/kg/injection, schedule: Q01DX009 (ip), vehicle: saline with Tween-80
  T/C: 99 % of control
dose: 6.25 mg/kg/injection, schedule: Q01DX009 (ip), vehicle: saline with Tween-80
  T/C: 103 % of control
dose: 12.5 mg/kg/injection, schedule: Q01DX009 (ip), vehicle: saline with Tween-80
  T/C: 105 % of control
dose: 25.0 mg/kg/injection, schedule: Q01DX009 (ip), vehicle: saline with Tween-80
  T/C: 153 % of control
[6]
  T/C: 94 % of control

## COC(=O)CCCCC(=O)OC
[7]
  T/C: 100 % of control
[8]
  T/C: 100 % of control
dose: 400.0 mg/kg/injection, schedule: Q01DX009 (ip), vehicle: saline with Tween-80
  T/C: 109 % of control

## CCCCCCCCCCCCCCCC(=O)Oc1ccc(/C(CC)=C(/CC)c2ccc(OC(=O)CCCCCCCCCCCCCCC)cc2)cc1
[9]
  T/C: 90 % of control
[10]
  T/C: 89 % of control
[11]
  T/C: 89 % of control

## CCOC(=O)NP(=O)(N1CC1(C)C)N1CC1(C)C (stereo not drawn)
dose: 31.3 mg/kg/injection, schedule: Q01DX010 (ip), vehicle: saline
  T/C: 175 % of control
dose: 62.5 mg/kg/injection, schedule: Q01DX010 (ip), vehicle: saline
  T/C: 175 % of control
dose: 125.0 mg/kg/injection, schedule: Q01DX010 (ip), vehicle: saline
  T/C: 200 % of control
dose: 250.0 mg/kg/injection, schedule: Q01DX010 (ip), vehicle: saline
  T/C: 225 % of control

## Cc1cc2c3ccccc3ccc2[n+]2ccccc12
dose: 4.1 mg/kg/injection, schedule: Q01DX009 (ip), vehicle: saline
  T/C: 120 % of control
dose: 9.37 mg/kg/injection, schedule: Q01DX009 (ip), vehicle: saline
  T/C: 161 % of control
dose: 18.75 mg/kg/injection, schedule: Q01DX009 (ip), vehicle: saline
  T/C: 171 % of control and 180 % of control
dose: 28.12 mg/kg/injection, schedule: Q01DX009 (ip), vehicle: saline
  T/C: 190 % of control
dose: 37.5 mg/kg/injection, schedule: Q04DX003 (ip), vehicle: alcohol
  T/C: 112 % of control

## CC(C)(C)NCc1cc(C(C)(C)C)cc(-c2ccc(Cl)cc2)c1O
[6]
  T/C: 99 % of control
[7]
  T/C: 102 % of control
